Reference: patent EP0377967A2, “9-Aza-3-(oxa/thia)-bicyclo[3,2,1]nonane derivatives, process and intermediates for their preparation and pharmaceutical compositions containing them” (BEECHAM GROUP PLC, priority 1988, dated 1990)

Tested on: von Bezold-Jarisch reflex evoked by 5-HT
Assay: Antagonism of the von Bezold-Jarisch reflex
Type: in vivo
Conditions: anaesthetised rat; dose of 1µg/kg i.v.
Experimental: The compounds were evaluated for antagonism of the von Bezold-Jarisch reflex evoked by 5-HT in the anaesthetised rat according to the following method:
Male rats 250-350g, were anaesthetised with urethane (1.25g/kg intraperitoneally) and blood pressure and heart rate recorded as described by Fozard J.R. et al., J. Cardiovasc. Pharmacol. 2, 229-245 (1980). A submaximal dose of 5-HT (usually 6µg/kg) was given repeatedly by the intravenous route and changes in heart rate quantified. Compounds were given intravenously and the concentration required to reduce the 5-HT-evoked response to 50% of the control response (ED₅₀) was then determined.

Row | Structure (SMILES) | activity (antagonism of the von Bezold-Jarisch reflex)
1 | COc1ccccc1NC(=O)NC1CC2COCC(C1)N2C (stereo not drawn) [Example E3, endo-N-(9-Methyl-9-aza-3-oxabicyclo[3.3.1]nonan-7-yl)-N′-(2-methoxyphenyl)urea] | active
2 | CN1C2COCC1CC(NC(=O)N1CC(C)(C)c3ccccc31)C2 (stereo not drawn) [Example E5, endo-N-(9-Methyl-9-aza-3-oxabicyclo[3.3.1]nonan-7-yl)-3,3-dimethyl-1-indoline carboxamide] | active
3 | CN1C2COCC1CC(NC(=O)c1nn(C)c3ccccc13)C2 (stereo not drawn) [Example E4, endo-N-(9-Methyl-9-aza-3-oxabicyclo[3.3.1]nonan-7-yl)-1-methyl-1H-indazol-3-carboxamide] | active
